Experimental data reported in patent US10645928B2, “Pesticidally active polycyclic derivatives with sulfur containing substituents” (Syngenta Participations AG, priority 2014, dated 2020).

Key:
Assay type in all cases: in vivo
[1] = tested on: Diabrotica balteata (Corn Root Worm); test: Example B2: Diabrotica balteata, sprayed maize sprouts, mortality and growth inhibition; conditions: 96 h, application rate of 200 ppm, L2 larvae, 4 days after infestation, read-out: effect in at least one of the two categories (mortality or growth inhibition)
Procedure: (§1) Maize sprouts placed onto an agar layer in 24-well microtiter plates were treated with aqueous test solutions prepared from 10,000 ppm DMSO stock solutions by spraying. After drying, the plates were infested with L2 larvae (6 to 10 per well). The samples were assessed for mortality and growth inhibition in comparison to untreated samples 4 days after infestation.

[2] = tested on: Diabrotica balteata (Corn Root Worm); test: Example B3: Diabrotica balteata, sprayed maize sprouts, mortality; conditions: 96 h, application rate of 200 ppm, L2 larvae, 4 days after infestation
Procedure: as §1, with “mortality” for “mortality and growth inhibition in comparison to untreated samples”

[3] = tested on: Euschistus heros (Neotropical Brown Stink Bug); test: Example B5: Euschistus heros, sprayed soybean leaves, mortality; conditions: 120 h, application rate of 200 ppm, N2 nymphs, 5 days after infestation
Procedure: (§2) Soybean leaves on agar in 24-well microtiter plates were sprayed with aqueous test solutions prepared from 10,000 ppm DMSO stock solutions. After drying the leaves were infested with N2 nymphs. The samples were assessed for mortality 5 days after infestation.

[4] = tested on: Euschistus heros (Neotropical Brown Stink Bug); test: Example B6: Euschistus heros, sprayed soybean leaves, mortality and growth inhibition; conditions: 120 h, application rate of 200 ppm, N2 nymphs, 5 days after infestation, read-out: effect in at least one of the two categories (mortality or growth inhibition)
Procedure: as §2, with “mortality and growth inhibition in comparison to untreated samples” for “mortality”

[5] = tested on: Frankliniella occidentalis (Western Flower Thrips); test: Example B7: Frankliniella occidentalis, sprayed sunflower leaf discs, mortality; conditions: foliar, 168 h, application rate of 200 ppm, population of mixed ages, 7 days after infestation
Procedure: (§3) Sunflower leaf discs were placed on agar in 24-well microtiter plates and sprayed with aqueous test solutions prepared from 10,000 DMSO stock solutions. After drying the leaf discs were infested with a Frankliniella population of mixed ages. The samples were assessed for mortality 7 days after infestation.

[6] = tested on: Plutella xylostella (Diamond Back Moth); test: Example B10: Plutella xylostella, treated artificial diet, growth inhibition; conditions: 120 h, application rate of 200 ppm, L2 larvae, 5 days after infestation
Summary of the method: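 Artificial diet treated with aqueous dilutions prepared from 10,000 ppm DMSO stocks, dried, then infested with 10-15 L2 larvae per well. Growth inhibition scored against untreated samples 5 days after infestation.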

[7] = tested on: Plutella xylostella (Diamond Back Moth); test: Example B12: Plutella xylostella, treated artificial diet, mortality; conditions: 120 h, application rate of 200 ppm, L2 larvae, 5 days after infestation
Procedure: (§4) 24-well microtiter plates with artificial diet were treated with aqueous test solutions prepared from 10,000 ppm DMSO stock solutions by pipetting. After drying, the plates were infested with L2 larvae (10 to 15 per well). The samples were assessed for mortality 5 days after infestation.

[8] = tested on: Plutella xylostella (Diamond Back Moth); test: Example B13: Plutella xylostella, treated artificial diet, mortality and growth inhibition; conditions: 120 h, application rate of 200 ppm, L2 larvae, 5 days after infestation, read-out: effect in at least one of the two categories (mortality or growth inhibition)
Procedure: as §4, with “mortality and growth inhibition in comparison to untreated samples” for “mortality”

[9] = tested on: Spodoptera littoralis (Egyptian Cotton Leaf Worm); test: Example B14: Spodoptera littoralis, sprayed cotton leaf discs, anti-feeding effect; conditions: foliar, 72 h, application rate of 200 ppm, L1 larvae, 3 days after infestation
Summary of the method: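 Cotton leaf discs on agar sprayed with aqueous test solutions made from 10,000 ppm DMSO stocks, dried, then infested with five L1 larvae. Anti-feeding effect scored 3 days after infestation against untreated discs; control counted when anti-feedant effect exceeds untreated.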

[10] = tested on: Spodoptera littoralis (Egyptian Cotton Leaf Worm); test: Example B16: Spodoptera littoralis, sprayed cotton leaf discs, mortality; conditions: foliar, 72 h, application rate of 200 ppm, L1 larvae, 3 days after infestation
Procedure: Cotton leaf discs were placed onto agar in 24-well microtiter plates and sprayed with aqueous test solutions prepared from 10,000 ppm DMSO stock solutions. After drying the leaf discs were infested with five L1 larvae. The samples were assessed for mortality 3 days after infestation.

[11] = tested on: Spodoptera littoralis (Egyptian Cotton Leaf Worm); test: Example B17: Spodoptera littoralis, sprayed cotton leaf discs, mortality, anti-feeding effect and growth inhibition; conditions: foliar, 72 h, application rate of 200 ppm, L1 larvae, 3 days after infestation, read-out: control (at least one of mortality, anti-feedant effect, growth inhibition)
Summary of the method: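 Cotton leaf discs on agar sprayed with aqueous dilutions of 10,000 ppm DMSO stocks, dried, then infested with five L1 larvae. Mortality, anti-feeding and growth inhibition scored against untreated discs 3 days after infestation. Control recorded when any one category exceeds the untreated sample.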

[12] = tested on: Spodoptera littoralis (Egyptian Cotton Leaf Worm); test: Example B20: Spodoptera littoralis, compound in agar absorbed by lettuce roots, mortality; conditions: 144 h, test rate of 12.5 ppm, uptake by lettuce roots, Spodoptera eggs, 6 days after infestation
Summary of the method: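 Compound from a 10,000 ppm DMSO stock mixed into agar; lettuce grown on it for 7 days to take up compound via roots, then leaves cut into lid plate. Spodoptera eggs applied on humid blotting paper; mortality scored 6 days after infestation.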

[13] = tested on: Thrips tabaci (Onion Thrips); test: Example B22: Thrips tabaci, sprayed sunflower leaf discs, mortality; conditions: foliar, 144 h, application rate of 200 ppm, thrips population of mixed ages, 6 days after infestation
Procedure: as §3, with “10,000 ppm” for “10,000”, “thrips” for “Frankliniella”, “6” for “7”

CCS(=O)(=O)c1cc(C(C#N)CCBr)cnc1-c1cn2cnc(C(F)(F)F)cc2n1 (stereo not shown) [Compound P13, 4-bromo-2-[5-ethylsulfonyl-6-[7-(trifluoromethyl)imidazo[1,2-c]pyrimidin-2-yl]-3-pyridyl]butanenitrile]
≥ 80%: percent effect (mortality or growth inhibition) at 200 ppm [1] | mortality at 200 ppm [2] | mortality at 200 ppm [3] | percent effect (mortality or growth inhibition) at 200 ppm [4] | mortality at 200 ppm [5] | inhibition at 200 ppm [6] | mortality at 200 ppm [7] | percent effect (mortality or growth inhibition) at 200 ppm [8] | pest or weed control at 200 ppm [9] | mortality at 200 ppm [10] | percent control (mortality, anti-feedant effect or growth inhibition) at 200 ppm [11] | mortality at 12.5 ppm [12] | mortality at 200 ppm [13]
